According to US9802990B2, “Functional peptides for obesity disorders” (DANONE, S.A., priority 2013, dated 2017):

Assays:
soy glycinin = assay: Protease activity of LAB strains (supernatant and cells); format: biochemical; conditions: for Protease activity cell: cells; for Protease activity Supernatant: culture supernatant, proteases above 10 KDa concentrated
From the text: For the purpose of selecting the most efficient lactic acid bacteria having protease activity against glycinin, different strains of the genera Lactobacillus and Streptococcus were subject to the following hydrolysis assay.
The substrate selected to carry out the process of hydrolysis was soy glycinin. Glycinin is the soy major protein extracted from soy flour after treatment with mercaptoethanol followed by two centrifugation steps as described in Thanh V. H. et al. (Major proteins of soybean seeds: a straightforward fractionation and their characterization. 1976. J Agric Food Chem 24: 1117-1121). Among the enzymatic sources used to degrade glycinin, ten strains were tested: 6 strains from Streptococcus genera (strains 2, 3, 4, 5, 6, 7) and 4 strains from Lactobacillus genera (strains 8, 9, 10 and 11). All these strains were grown in optimal medium (MRS for Lactobacillus strains and BHI for Streptococcus strains) during 17 h at 37° C. and the proteases with a molecular weight above 10 KDa both in supernatant and cells were concentrated to be used as enzymatic sources in glycinin hydrolysis assays. On one hand, proteases from the supernatant were obtained after centrifugation for 15 min at 4000 rpm. Then the supernatant was ultrafiltrated by 10 KDa and the top was resuspended in 2 ml with 50 mM citrate phosphate buffer pH 7. On the other hand, cells obtained from the different cultures were washed with saline solution for 15 min at 4000 rpm and resuspended in 50 mM citrate phosphate buffer pH 7 to evaluate the protease activity in cells and supernatant (Table 1).

[1] = test system: C. elegans wild type strain N2; assay: C. elegans body fat reduction, Nile Red staining; format: in vivo, Caenorhabditis elegans; conditions: for % Fluorescence Reduction C. elegans: synthesized peptides at 1 μg/mL of final concentration
Description: The ability to reduce body fat content in the nematode C. elegans was analyzed in a group of 5 peptide extracts previously obtained from glycinin (see Table 4). These samples were selected by their high effect on PL and PLA2 in vitro inhibition. Specifically, 5 peptide extracts were selected from the PLA2 inhibition assay (M20G, M5G, M31G, M27G and M29G). Body fat content was analyzed in the C. elegans wild type strain N2 by Red Nile dying of living nematodes. Experiments were carried out with age-synchronized populations, starting from egg-stage to young adult stage (3-day adults). During the experiments, worms were cultured in the NGM agar plates as control condition, NGM with the corresponding peptide extracts (100 μL/plate) and NGM with 6 μg/mL of Orlistat as positive control. Nile Red was added on top of the NG plates already seeded with Escherichia coli OP50 strain to a final concentration of 0.05 μg/ml. After incubation at 20° C., young adult worms (60 worms per condition) were taken to measure the in vivo fluorescence in a VersaFluor™ Fluorometer System. Fluorescence obtained in treated worms was calculated from fluorescence of worms fed in control conditions (reference sample). Experiments were carried out by duplicate.
From these purified fractions, a total of 11 peptides were selected to be synthesized and evaluated in vivo in the obesity model of C. elegans (Table 9). All peptides were evaluated at 1 μg/mL of final concentration.
We selected 5 peptides obtained from hydrolysis of glycinin with strain 6 (P8a, P6a, P14c, P16f, P14b) The peptides from glycinin were added to a soy fermented product (Savia® from Danone) both alone or mixed at final concentration of 1 μg/mL. Nematodes were fed with these products and then total lipids were quantified by Nile Red staining.

## Streptococcus thermophilus CNCM I-2965 [Strain 2]
Soy glycinin
  Protease activity cell: 0.003 U.I./ml
  Protease activity Supernatant: 0.005 U.I./ml

## Lactobacillus paracasei paracasei CNCM I-4270 [Strain 10]
Soy glycinin
  Protease activity cell: 0.005 U.I./ml
  Protease activity Supernatant: 0.016 U.I./ml

## Streptococcus thermophilus CNCM I-2785 [Strain 3]
Soy glycinin
  Protease activity cell: 0.001 U.I./ml
  Protease activity Supernatant: 0.009 U.I./ml

## DEDEDEDKPRPSRP (DEDEDEDKPRPSRP; listed as Glycine soja) [Peptide P14d]
[1]
  % Fluorescence Reduction C. elegans: 6.26 ± 7.6%

## Lactobacillus delbrueckii lactis CNCM I-4280 [Strain 8]
Soy glycinin
  Protease activity cell: 0.009 U.I./ml
  Protease activity Supernatant: 0.028 U.I./ml

## Lactobacillus helveticus CNCM I-4279 [Strain 9]
Soy glycinin
  Protease activity cell: 0.012 U.I./ml
  Protease activity Supernatant: 0.010 U.I./ml

## Streptococcus thermophilus CNCM I-2776 [Strain 6]
Soy glycinin
  Protease activity cell: 0.001 U.I./ml
  Protease activity Supernatant: 0.006 U.I./ml

## QDEDEDEDEDKPRPSRP (QDEDEDEDEDKPRPSRP; listed as Glycine soja) [Peptide P17c]
[1]
  % Fluorescence Reduction C. elegans: 18.13 ± 5.57%

## Streptococcus thermophilus CNCM I-4269 [Strain 4]
Soy glycinin
  Protease activity cell: 0.002 U.I./ml
  Protease activity Supernatant: 0.001 U.I./ml

## GKREQDEDEDEDEDKPRPSRP (GKREQDEDEDEDEDKPRPSRP; listed as Glycine soja) [Peptide P21b]
[1]
  % Fluorescence Reduction C. elegans: 24.91 ± 7.1%

## CCCCCCCCCCC[C@@H](C[C@@H]1OC(=O)[C@H]1CCCCCC)OC(=O)[C@H](CC(C)C)NC=O [Orlistat, reference compound]
[1]; nematodes fed NG with peptides alone or in Savia soy fermented product, alone or mixed, 1 μg/mL final concentration, Nile Red
  % Fluorescence Reduction: 29.5 ± 0.1%

## Streptococcus thermophilus CNCM I-3211 [Strain 5]
Soy glycinin
  Protease activity cell: 0.001 U.I./ml
  Protease activity Supernatant: 0.003 U.I./ml

## Lactobacillus paracasei paracasei CNCM I-1518 [Strain 11]
Soy glycinin
  Protease activity cell: 0.006 U.I./ml
  Protease activity Supernatant: 0.029 U.I./ml

## DEDEDEDEDKPRPSRP (DEDEDEDEDKPRPSRP; listed as Glycine soja) [Peptide P16e]
[1]
  % Fluorescence Reduction C. elegans: 21.86 ± 4%

## HQQEEENEGGSILSG (HQQEEENEGGSILSG; listed as Glycine soja) [Peptide P15a]
[1]
  % Fluorescence Reduction C. elegans: 22.82 ± 6.1%

## Streptococcus thermophilus CNCM I-1630 [Strain 7]
Soy glycinin
  Protease activity cell: 0.001 U.I./ml
  Protease activity Supernatant: 0.003 U.I./ml
